For this assay, the target named is human recombinant H-PGDS (Homo sapiens, UniProt O60760). The experiment in a line: Fluorescence intensity h-PGDS TBA enzyme assay. It counts as biochemical. The following applies: Examples up to 622 (and 3a, 3b).

What is called IC50 is the concentration at which inhibition is half-maximal.

Chain of human recombinant H-PGDS (O60760 whole entry): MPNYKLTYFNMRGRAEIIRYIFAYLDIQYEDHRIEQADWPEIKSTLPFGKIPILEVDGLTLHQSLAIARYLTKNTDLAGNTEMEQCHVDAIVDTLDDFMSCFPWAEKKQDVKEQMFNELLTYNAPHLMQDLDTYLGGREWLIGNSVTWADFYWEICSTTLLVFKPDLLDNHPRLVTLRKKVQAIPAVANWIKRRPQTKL

Regarding `COc1ccccc1C1(CN2CCC(NC(=O)c3ccc(-c4cccc(F)c4)nc3)CC2)CCOCC1` [Example 285, 6-(3-Fluorophenyl)-N-(1-{[4-(2-methoxyphenyl)tetrahydro-2H-pyran-4-yl]methyl}piperidin-4-yl)nicotinamide], the half-maximal inhibitory concentration (IC50) stood at 1.53 nM.
For `COc1cccc(C2(CN3CCC(NC(=O)c4ccc(-c5cccc(F)c5)nc4)CC3)CCOCC2)c1` [Example 286, 6-(3-Fluorophenyl)-N-(1-{[4-(3-methoxyphenyl)tetrahydro-2H-pyran-4-yl]methyl}piperidin-4-yl)nicotinamide] the value was 1.21 nM; for `Cc1c(CN2CCC(NC(=O)c3ccc(-c4cccc(F)c4)nc3)CC2)cnn1C` [Example 287, N-{1-[(1,5-dimethyl-1H-pyrazol-4-yl)methyl]piperidin-4-yl}-6-(3-fluorophenyl)nicotinamide], 3 nM.
As for `O=C(NC1CCN(Cc2ccc3nsnc3c2)CC1)c1ccc(-c2cccc(F)c2)nc1` [Example 288, N-[1-(2,1,3-Benzothiadiazol-5-ylmethyl)piperidin-4-yl]-6-(3-fluorophenyl)nicotinamide], the figure is 1.25 nM.
For `O=C(NC1CCN(Cc2cnc(-c3ccccc3)s2)CC1)c1ccc(-c2cccc(F)c2)nc1` [Example 289, 6-(3-Fluorophenyl)-N-{1-[(2-phenyl-1,3-thiazol-5-yl)methyl]piperidin-4-yl}nicotinamide] the value was 2.09 nM.
For the compound `O=C(NC1CCN(Cc2ccc3ncccc3c2)CC1)c1ccc(-c2cccc(F)c2)nc1` [Example 290, 6-(3-Fluorophenyl)-N-[1-(quinolin-6-ylmethyl)piperidin-4-yl]nicotinamide], the IC50 amounted to 0.843 nM.
For the compound `CCOc1cccc(CN2CCC(NC(=O)c3ccc(-c4cccc(F)c4)nc3)CC2)c1` [Example 291, N-[1-(3-Ethoxybenzyl)piperidin-4-yl]-6-(3-fluorophenyl)nicotinamide], the IC50 was 1.17 nM.
Consider `O=C(NC1CCN(Cc2ccccc2OC(F)F)CC1)c1ccc(-c2cccc(F)c2)nc1` [Example 292, N-{1-[2-(Difluoromethoxy)benzyl]piperidin-4-yl}-6-(3-fluorophenyl)nicotinamide], for which the IC50 stood at 0.465 nM.
For `CC(CCC#N)(CN1CCC(NC(=O)c2ccc(-c3cccc(F)c3)nc2)CC1)c1ccccc1` (centres unmarked) [Example 293, N-[1-(4-Cyano-2-methyl-2-phenylbutyl)piperidin-4-yl]-6-(3-fluorophenyl)nicotinamide] the value was 0.592 nM; for `O=C(NC1CCN(Cc2c[nH]cn2)CC1)c1ccc(-c2cccc(F)c2)nc1` [Example 294, 6-(3-Fluorophenyl)-N-[1-(1H-imidazol-4-ylmethyl)piperidin-4-yl]nicotinamide], 1.76 nM; for `COc1ccc(F)cc1CN1CCC(NC(=O)c2ccc(-c3cccc(F)c3)nc2)CC1` [Example 295, N-[1-(5-Fluoro-2-methoxybenzyl)piperidin-4-yl]-6-(3-fluorophenyl)nicotinamide], 0.506 nM.
As for `Cc1nc[nH]c1CN1CCC(NC(=O)c2ccc(-c3cccc(F)c3)nc2)CC1` [Example 296, 6-(3-Fluorophenyl)-N-{1-[(4-methyl-1H-imidazol-5-yl)methyl]piperidin-4-yl}nicotinamide], the figure is 1.4 nM; as for `COc1cc(CN2CCC(NC(=O)c3ccc(-c4cccc(F)c4)nc3)CC2)cc(OC)c1` [Example 297, N-[1-(3,5-Dimethoxybenzyl)piperidin-4-yl]-6-(3-fluorophenyl)nicotinamide], 1.25 nM.
Regarding `CC(C)(C)CCN1CCC(NC(=O)c2ccc(-c3cccc(F)c3)nc2)CC1` [Example 298, N-[1-(3,3-Dimethylbutyl)piperidin-4-yl]-6-(3-fluorophenyl)nicotinamide], the IC50 came out at 0.939 nM.
For `O=C(NC1CCN(Cc2ccccc2Cl)CC1)c1ccc(-c2cccc(F)c2)nc1` [Example 299, N-[1-(2-Chlorobenzyl)piperidin-4-yl]-6-(3-fluorophenyl)nicotinamide] the value was 0.308 nM.
`O=C(NC1CCN(Cc2ncc[nH]2)CC1)c1ccc(-c2cccc(F)c2)nc1` [Example 300, 6-(3-Fluorophenyl)-N-[1-(1H-imidazol-2-ylmethyl)piperidin-4-yl]nicotinamide]: the IC50 came to 0.362 nM.
As for `O=C(NC1CCN(CCCc2ccccc2)CC1)c1ccc(-c2cccc(F)c2)nc1` [Example 301, 6-(3-Fluorophenyl)-N-[1-(3-phenylpropyl)piperidin-4-yl]nicotinamide], the figure is 1.16 nM.
For `Cc1cc(CN2CCC(NC(=O)c3ccc(-c4cccc(F)c4)nc3)CC2)ccc1F` [Example 302, N-[1-(4-Fluoro-3-methylbenzyl)piperidin-4-yl]-6-(3-fluorophenyl)nicotinamide] the value was 0.636 nM; for `N#Cc1cc(CN2CCC(NC(=O)c3ccc(-c4cccc(F)c4)nc3)CC2)ccc1F` [Example 303, N-[1-(3-Cyano-4-fluorobenzyl)piperidin-4-yl]-6-(3-fluorophenyl)nicotinamide], 0.662 nM.
`O=C(NC1CCN(Cc2ccc3[nH]ccc3c2)CC1)c1ccc(-c2cccc(F)c2)nc1` [Example 304, 6-(3-Fluorophenyl)-N-[1-(1H-indol-5-ylmethyl)piperidin-4-yl]nicotinamide]: the IC50 is 2.11 nM.
For `COc1cc(C)cc(OC)c1CN1CCC(NC(=O)c2ccc(-c3cccc(F)c3)nc2)CC1` [Example 305, N-[1-(2,6-Dimethoxy-4-methylbenzyl)piperidin-4-yl]-6-(3-fluorophenyl)nicotinamide] the value was 2.7 nM.
As for `CCOc1cc(OC)ccc1CN1CCC(NC(=O)c2ccc(-c3cccc(F)c3)nc2)CC1` [Example 306, N-[1-(2-Ethoxy-4-methoxybenzyl)piperidin-4-yl]-6-(3-fluorophenyl)nicotinamide], the figure is 2.71 nM; as for `Cc1ccc(-c2n[nH]cc2CN2CCC(NC(=O)c3ccc(-c4cccc(F)c4)nc3)CC2)cc1` [Example 307, 6-(3-Fluorophenyl)-N-(1-{[3-(4-methylphenyl)-1H-pyrazol-4-yl]methyl}piperidin-4-yl)nicotinamide], 0.784 nM.
For `N#Cc1ccc(Oc2ccc(CN3CCC(NC(=O)c4ccc(-c5cccc(F)c5)nc4)CC3)cn2)cc1` [Example 308, N-(1-{[6-(4-Cyanophenoxy)pyridin-3-yl]methyl}piperidin-4-yl)-6-(3-fluorophenyl)nicotinamide] the value was 2.03 nM; for `O=C(NC1CCN(CC2=C(Cl)c3cc(F)ccc3OC2)CC1)c1ccc(-c2cccc(F)c2)nc1` [Example 309, N-(1-[(4-Chloro-6-fluoro-2H-chromen-3-yl)methyl]piperidin-4-yl)-6-(3-fluorophenyl)nicotinamide], 4.32 nM; for `O=C(NC1CCN(Cc2cc(=O)[nH]c(=O)[nH]2)CC1)c1ccc(-c2cccc(F)c2)nc1` [Example 310, N-{1-[(2,6-Dioxo-1,2,3,6-tetrahydropyrimidin-4-yl)methyl]piperidin-4-yl)-6-(3-fluorophenyl)nicotinamide], 4.78 nM.
For `COC(=O)c1ccc2[nH]cc(CN3CCC(NC(=O)c4ccc(-c5cccc(F)c5)nc4)CC3)c2c1` [Example 311, Methyl 3-{[4-({[6-(3-fluorophenyl)pyridin-3-yl]carbonyl}amino)piperidin-1-yl]methyl}-1H-indole-5-carboxylate], the IC50 is 1.72 nM.
For `O=C(NC1CCN(CCCC(F)(F)F)CC1)c1ccc(-c2cccc(F)c2)nc1` [Example 312, 6-(3-Fluorophenyl)-N-[1-(4,4,4-trifluorobutyl)piperidin-4-yl]nicotinamide], the IC50 worked out at 1.08 nM.
For `O=C(NC1CCN(Cc2ccc3c(c2)CCO3)CC1)c1ccc(-c2cccc(F)c2)nc1` [Example 313, N-[1-(2,3-Dihydro-1-benzofuran-5-ylmethyl)piperidin-4-yl]-6-(3-fluorophenyl)nicotinamide] the value was 2.15 nM; for `Cn1nc(C(F)(F)F)c(CN2CCC(NC(=O)c3ccc(-c4cccc(F)c4)nc3)CC2)c1Cl` [Example 314, N-(1-{[5-Chloro-1-methyl-3-(trifluoromethyl)-1H-pyrazol-4-yl]methyl}piperidin-4-yl)-6-(3-fluorophenyl)nicotinamide], 0.24 nM; for `O=C(NC1CCN(Cc2cccc(OC(F)F)c2)CC1)c1ccc(-c2cccc(F)c2)nc1` [Example 315, N-{1-[3-(Difluoromethoxy)benzyl]piperidin-4-yl}-6-(3-fluorophenyl)nicotinamide], 0.549 nM.
For `CCOc1c(CN2CCC(NC(=O)c3ccc(-c4cccc(F)c4)nc3)CC2)cccc1OC` [Example 316, N-[1-(2-Ethoxy-3-methoxybenzyl)piperidin-4-yl]-6-(3-fluorophenyl)nicotinamide] the value was 1.36 nM; for `O=C(NC1CCN(Cc2ccc(C(F)(F)F)nc2)CC1)c1ccc(-c2cccc(F)c2)nc1` [Example 317, 6-(3-Fluorophenyl)-N-(1-{[6-(trifluoromethyl)pyridin-3-yl]methyl}piperidin-4-yl)nicotinamide], 2.07 nM; for `Cc1ccc(CN2CCC(NC(=O)c3ccc(-c4cccc(F)c4)nc3)CC2)c(F)c1F` [Example 318, N-[1-(2,3-Difluoro-4-methylbenzyl)piperidin-4-yl]-6-(3-fluorophenyl)nicotinamide], 1.18 nM.
As for `Cc1nn(C)c(Cl)c1CN1CCC(NC(=O)c2ccc(-c3cccc(F)c3)nc2)CC1` [Example 319, N-{1-[(5-Chloro-1,3-dimethyl-1H-pyrazol-4-yl)methyl]piperidin-4-yl}-6-(3-fluorophenyl)nicotinamide], the figure is 0.384 nM; as for `O=C(NC1CCN(Cc2c[nH]c(-c3ccccc3)n2)CC1)c1ccc(-c2cccc(F)c2)nc1` [Example 320, 6-(3-Fluorophenyl)-N-{1-[(2-phenyl-1H-imidazol-4-yl)methyl]piperidin-4-yl}nicotinamide], 2.34 nM.
As for `Cn1cc(Br)c(CN2CCC(NC(=O)c3ccc(-c4cccc(F)c4)nc3)CC2)n1` [Example 321, N-{1-[(4-Bromo-1-methyl-1H-pyrazol-3-yl)methyl]piperidin-4-yl}-6-(3-fluorophenyl)nicotinamide], the IC50 was 0.365 nM.
For `COc1ccc(CCCN2CCC(NC(=O)c3ccc(-c4cccc(F)c4)nc3)CC2)cc1` [Example 322, 6-(3-Fluorophenyl)-N-{1-[3-(4-methoxyphenyl)propyl]piperidin-4-yl}nicotinamide] the value was 0.748 nM.

For the origin of these results see patent publication US7902373B2 (Pfizer Inc, priority 2006, dated 2011).
